Patent publication US20050005311A1, “High throughput screening for cancer genes” (priority 2003, published 2005)

System: l(2)gl primary tumor
Format: in vivo, Drosophila melanogaster
Protocol: Adult hosts injected with l(2)gl/l(2)gl larval tissue were orally administered drugs for 21 days after injection. Hosts were treated with 0 or 0.56 μg/ml of LY294002 (reduction of tumor size to 7% of untreated) and 0 or […] PD98059 (no effect).
Brain lobes from armadillo-lacZ marked larvae; were dissected and cut into halves. Each fragment was injected into the abdomen of a βgal^ml (a mutant that lacks endogenous […] expression) adult female using a 33 gauge needle, where it was cultured for 21 days at room temperature. Hosts that had received transplants were opened along the ventral midline and fixed in 3.7% formaldehyde in phosphate buffered saline (PBS). β-galactosidase in the donor tissue was detected by staining overnight at 37° C. in 0.02% X-gal in 10 mM Na pyrophosphate, 0.15 M NaCl, […], 5 mM ferricyanide, and 5 mM K ferrocyanide (Specialty Media). Secondary tumors were defined as β-galactosidase-marked cells distinct from the :implanted tumor, which was defined as the primary tumor.
The levels of Mothers against dpp (Mad), P13K, ERK, Akt, and cleaved caspase 3 were studied in brain extracts from l(2)gl/l(2)gl, l(2)gl/l(2)gl; sema-5c/sema-5c, and wild-type larvae. P13K was reduced in l(2)gl/l(2)gl;sema-5c/sema-5c compared to l(2)gl/l(2)gl. To further study the role of P13K in l(2)gl tumors, the P13K inhibitor, LY294002, was orally administered to Drosophila adults injected with l(2)gl/l(2)gl tissue.
Adult βgal^nl hosts transplanted with armadillo-lacZ marked l(2)gl brain fragments were treated with 0; 0.556; 5.56; and 55.6 μg/ml of the PI-3 K inhibitor, LY294002 (Sigma), by adding drug to fly media. Flies were cultured for 21 days on drug-containing food and stained for the presence of β-galactosidase. Primary tumor size was determined by counting the cells dissociated from tumors. See, e.g., FIG. 5.

Row | SMILES | effect on l(2)gl primary tumor growth (adult hosts injected with l(2)gl/l(2)gl larval tissue, oral, 0.56 μ/ml, 21 days after injection (FIG. 5)) | primary tumor size (% of untreated) (adult hosts injected with l(2)gl/l(2)gl larval tissue, oral, 0.56 μg/ml, 21 days after injection (FIG. 5)) | adverse effects to the hosts (in vivo, po) | primary tumor size (orally administered to Drosophila adults injected with l(2)gl/l(2)gl tissue, dose not given)
1 | COc1cccc(-c2cc(=O)c3ccccc3o2)c1N [PD98059] | no effect |  |  | 
2 | O=c1cc(N2CCOCC2)oc2c(-c3ccccc3)cccc12 [LY294002] |  | 7 % of untreated | without adverse effects | 7 % of untreated hosts
